Experimental data reported in patent publication US9617251B2, “Indanylaminopyridylcyclopropanecarboxylic acids, pharmaceutical compositions and uses thereof” (BOEHRINGER INGELHEIM INTERNATIONAL GMBH, priority 2015, dated 2017).
Values after ≈ are worked out from the molar mass of the structure shown.

Tests used:
[1] = target: T1, cytochrome P450 2C8-isoenzyme (Homo sapiens, UniProt P10632); assay: Inhibition of CYP-2C8 (deethylation of amodiaquine, human liver microsomes); format: in vitro ADME; conditions: CYP-2C8, human liver microsomes, amodiaquine 1 μM, 37° C.
T1 construct: from tissue; host or cells: human liver microsomes
T1 sequence (P10632 1-490): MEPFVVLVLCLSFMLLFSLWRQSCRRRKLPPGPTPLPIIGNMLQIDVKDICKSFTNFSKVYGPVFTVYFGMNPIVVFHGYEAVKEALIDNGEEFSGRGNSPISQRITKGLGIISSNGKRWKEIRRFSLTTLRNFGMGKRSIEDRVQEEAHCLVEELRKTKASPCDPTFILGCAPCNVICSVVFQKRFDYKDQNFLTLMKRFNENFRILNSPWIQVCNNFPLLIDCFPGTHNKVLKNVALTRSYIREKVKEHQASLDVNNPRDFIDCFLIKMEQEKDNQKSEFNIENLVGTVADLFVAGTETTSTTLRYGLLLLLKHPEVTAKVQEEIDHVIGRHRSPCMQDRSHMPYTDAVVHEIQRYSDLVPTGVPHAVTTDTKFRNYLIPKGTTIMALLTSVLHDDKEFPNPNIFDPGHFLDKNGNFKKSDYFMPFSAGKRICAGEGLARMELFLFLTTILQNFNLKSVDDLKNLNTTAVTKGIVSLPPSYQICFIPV
Protocol: The inhibition of cytochrome P450 2C8-isoenzyme catalyzed deethylation of amodiaquine by the test compound is assayed at 37° C. with human liver microsomes. All assays are carried out on a robotic system in 96 well plates. The final incubation volume contains TRIS buffer (0.1 M), MgCl2 (5 mM), human liver microsomes (0.05 mg/mL), amodiaquine (1 μM) and the test compound at five different concentrations or no compound (high control) in duplicate (e.g. highest concentration 10-50 μM with subsequent serial 1:4 dilutions). Following a short preincubation period, reactions are started with the cofactor (NADPH, 1 mM) and stopped by cooling the incubation down to 8° C. and subsequently by addition of one volume of acetonitrile. An internal standard solution—the stable isotope d5-desethylamodiaquine—is added after quenching of incubations. Peak area analyte (=metabolite formed) and internal standard is determined by LC-MS/MS. The resulting peak area ratio analyte to internal standard in these incubations is compared to a control activity containing no test compound. Within each of the assay runs, the IC50 of a positive control inhibitor (Montelukast) is determined. Experimental IC50 values are calculated by least square regression according to the following equation: % control activity=(100% control activity/(1+(I/IC50)S))−B with I=inhibitor concentration; S=slope factor; B=background activity (lower plateau of the inhibition curve)
(§1) If the inhibition of the reaction is already >50% at the lowest concentration of the test compound, the IC50 is assigned “<lowest concentration tested” (usually <0.4 μM). If the inhibition of the reaction is still <50% at the highest concentration of the test compound, the IC50 is assigned “>highest concentration tested” (usually >50 μM).

[2] = Aqueous solubility in buffer vs acetonitrile/water (1/1), LC-UV; format: physicochemical; conditions: kinetic from dmso stock, buffer pH 2.2, 24 h shaking, 2.5% DMSO
Protocol: The aqueous solubility of the compounds of the invention is determined by comparing the amount dissolved in buffer to the amount in an acetonitrile/water (1/1) solution. Starting from a 10 mM DMSO stock solution aliquots are diluted with acetonitrile/water (1/1) or buffer, respectively. After 24 h of shaking, the solutions are filtrated and analyzed by LC-UV. The amount dissolved in buffer is compared to the amount in the acetonitrile solution.
Solubility is usually being measured from 0.001 to 0.125 mg/mL at a DMSO concentration of 2.5%. If more than 90% of the compound is dissolved in buffer, the value is marked with “>”.

[3] = target: T2, cytochrome P450 2C9-isoenzyme (Homo sapiens, UniProt P11712); assay: Inhibition of CYP-2C9 (hydroxylation of diclofenac, human liver microsomes); format: in vitro ADME; conditions: CYP-2C9, human liver microsomes, diclofenac 10 μM, 37° C.
T2 construct: from tissue; host or cells: human liver microsomes
T2 sequence (P11712 whole entry): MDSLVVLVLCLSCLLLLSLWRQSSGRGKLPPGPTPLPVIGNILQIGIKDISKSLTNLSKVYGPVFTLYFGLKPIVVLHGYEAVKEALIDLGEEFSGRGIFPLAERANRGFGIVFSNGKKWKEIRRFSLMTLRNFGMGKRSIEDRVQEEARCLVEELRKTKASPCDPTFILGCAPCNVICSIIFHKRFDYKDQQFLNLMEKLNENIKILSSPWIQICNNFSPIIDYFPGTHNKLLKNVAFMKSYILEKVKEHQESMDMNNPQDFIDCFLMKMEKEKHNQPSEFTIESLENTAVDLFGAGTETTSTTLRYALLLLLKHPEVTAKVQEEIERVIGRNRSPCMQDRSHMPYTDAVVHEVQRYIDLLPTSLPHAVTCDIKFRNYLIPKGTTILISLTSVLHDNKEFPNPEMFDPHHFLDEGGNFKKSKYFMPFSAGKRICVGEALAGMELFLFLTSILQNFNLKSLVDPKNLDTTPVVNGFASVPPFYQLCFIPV
Protocol: The inhibition of cytochrome P450 2C9-isoenzyme catalyzed hydroxylation of diclofenac by the test compound is assayed at 37° C. with human liver microsomes. All assays are carried out on a robotic system in 96 well plates. The final incubation volume contains TRIS buffer (0.1 M), MgCl2 (5 mM), human liver microsomes (0.1 mg/mL), diclofenac (10 μM) and the test compound at five different concentrations or no compound (high control) in duplicate (e.g., highest concentration 10-50 μM with subsequent serial 1:4 dilutions). Following a short preincubation period, reactions are started with the cofactor (NADPH, 1 mM) and stopped by cooling the incubation down to 8° C. and subsequently by addition of one volume of acetonitrile. An internal standard solution—the stable isotope ^13C6-hydroxydiclofenac—is added after quenching of incubations. Peak area analyte (=metabolite formed) and internal standard is determined by LC-MS/MS. The resulting peak area ratio analyte to internal standard in these incubations is compared to a control activity containing no test compound. Within each of the assay runs, the IC50 of a positive control inhibitor (sulfaphenazole) is determined. Experimental IC50 values are calculated by least square regression according to the following equation: % control activity=(100% control activity/(1+(I/IC50)S))−B with I=inhibitor concentration; S=slope factor; B=background activity (lower plateau of the inhibition curve)
as §1

[4] = Chemical stability: degradation kinetics in acidic aqueous media (pH ca. 1.2), HPLC recovery; format: physicochemical; conditions: pH value of ca. 1.2 (acetonitrile/0.1 M aqueous HCl 2:3), 37° C.
Protocol: Degradation kinetics is used to simulate chemical stability of compounds in the acidic part of the gastro intestinal tract. […] Their application as medical drugs to treat human diseases is therefore less restricted and troublesome.
The chemical stability of the compounds of the invention at pH value of ca. 1.2 is determined as follows:
Compound is dissolved in an HPLC vial either in a mixture of acetonitrile/0.1 M aqueous HCl (2:3; pH ca. 1.2) or in a mixture of acetonitrile/McIlvaine buffer pH 7.4 (2:3) to get a concentration of approximately 0.25 mg/ml. The vial was then transferred into an HPLC autosampler system and maintained at a temperature of 37° C. A first sample is taken and injected immediately into a standard HPLC system with a UV DAD detector. Further samples are injected after 2, 4, 6, 8 and 10 hours. Amount of degraded compound is measured by determining the recovery rate of compound [%] for each injection using an HPLC standard gradient method. Therefore the peak area of the main peak for the first injection (AUt0) is determined and set as 100%. Peak area of the main peak is determined also for the further injections (AUtn, n=2, 4, 6, 8, 10) and expressed as fraction of (AUt0)/(AUtn, n=2, 4, 6, 8, 10) [%].

human GPR40 receptor = human GPR40 receptor (Homo sapiens, UniProt O14842); assay: IP1 accumulation measurements using the IPOne assay system (1321N1 cells stably expressing human GPR40 receptor); format: cell-based; conditions: 1321N1 cells expressing human GPR40, 1 h stimulation at 37° C.
Sequence of human GPR40 receptor (O14842 whole entry): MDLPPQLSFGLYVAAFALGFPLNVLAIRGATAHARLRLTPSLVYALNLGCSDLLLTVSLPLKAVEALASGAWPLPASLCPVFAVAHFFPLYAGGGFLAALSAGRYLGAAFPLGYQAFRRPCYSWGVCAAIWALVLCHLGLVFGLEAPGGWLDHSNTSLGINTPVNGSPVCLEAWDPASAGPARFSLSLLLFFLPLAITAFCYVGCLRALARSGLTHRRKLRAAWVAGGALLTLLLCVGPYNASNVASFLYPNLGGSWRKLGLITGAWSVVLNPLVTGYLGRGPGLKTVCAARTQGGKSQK
Protocol: IP1 accumulation measurements using the IPOne assay system—1321N1 cells stably expressing human GPR40 receptor (Euroscreen, Belgium) are seeded 24 h before the assay in white 384-well plates in culture medium containing 10% FCS, 1% Na-Pyruvate and 400 μg/mL G418. IP1 is assayed according to the manufacturer's description (Cisbio Bioassays, France). In brief, the assay is started by substitution of the culture medium by stimulation buffer (Hepes 10 mM, CaCl2 1 mM, MgCl2 0.5 mM, KCl 4.2 mM, NaCl 146 mM, glucose 5.5 mM and LiCl 50 mM, pH 7.4). Cells are stimulated for 1 h at 37° C., 5% CO2 by addition of the compounds that are diluted in stimulation buffer containing LiCl. Assays are stopped by adding HTRF-conjugates (IP1-d2 and Anti-IP1 cryptate Tb) and lysis buffer, provided by the manufacturer. After an incubation time of 1 h at room temperature plates are measured using an EnVision™, Perkin Elmer. The obtained fluorescence ratios at 665/615 […] are then used to calculate the pEC50 values using Assay Explorer 3.3 Software (Accelrys, Inc.) by interpolation using an IP1 reference curve and subsequent sigmoidal curve fitting allowing for a variable hill slope.

| Compound | IC50 [1] [µM] | solubility at 24 h [2] [µg/mL] | IC50 [3] [µM] | Amount of degradation after 2 h [4] [%] | EC50 (human GPR40 receptor) [µM] |
| --- | --- | --- | --- | --- | --- |
| COc1cc(F)c(-c2ccc(F)c3c2CC[C@H]3Nc2ccc([C@H]3C[C@@H]3C(=O)O)cn2)c(F)c1 [Example 56] | 33 | 73 (≈ 161 µM) | 28 | <0.5 | 0.151 |
| Cc1cc(-c2nnn(C)n2)cc(C)c1-c1cccc2c1CC[C@H]2Nc1ccc([C@H]2C[C@@H]2C(=O)O)cn1 [Example 1, (1S,2S)-2-(6-{(R)-4-[2,6-Dimethyl-4-(2-methyl-2H-tetrazol-5-yl)-phenyl]-indan-1-ylamino}-pyridin-3-yl)-cyclopropanecarboxylic acid] | 16 | 67 (≈ 139 µM) | 48 | <0.5 | 0.007 |
| Cc1nc(-c2cc(C)c(-c3ccc(F)c4c3CC[C@H]4Nc3ccc([C@H]4C[C@@H]4C(=O)O)cn3)c(C)c2)no1 [Example 26] | 35 | 65 (≈ 130 µM) | > 50 | <0.5 | 0.004 |
| Cc1cc(-c2ccn(C)c(=O)c2)cc(C)c1-c1ccc(F)c2c1CC[C@H]2Nc1ccc([C@H]2C[C@@H]2C(=O)O)cn1 [Example 36] | 10 | 107 (≈ 204 µM) | > 50 | <0.5 | 0.006 |
| COc1cc(-c2cc(C)c(-c3ccc(F)c4c3CC[C@H]4Nc3ccc([C@H]4C[C@@H]4C(=O)O)cn3)c(C)c2)ccn1 [Example 72] | 8 | 101 (≈ 193 µM) | 18 | <0.5 | 0.006 |
| Cc1cc(OCC(C)(C)C#N)cc(C)c1-c1ccc(F)c2c1CC[C@H]2Nc1ccc([C@H]2C[C@@H]2C(=O)O)cn1 [Example 35] | 18 | 59 (≈ 115 µM) | 34 | <0.5 | 0.023 |
| O=C(O)[C@H]1C[C@@H]1c1ccc(N[C@@H]2CCc3c(-c4ccccc4C(F)(F)F)ccc(F)c32)nc1 [Example 74] | 21 | 82 (≈ 180 µM) | 14 | <1.0 | 0.049 |
| Cc1cc(OCC2(O)CCOCC2)cc(C)c1-c1ccc(F)c2c1CC[C@H]2Nc1ccc([C@H]2C[C@@H]2C(=O)O)cn1 [Example 63] | > 50 | 118 (≈ 216 µM) | > 50 | <0.5 | 0.02 |
| CCc1cccc(CC)c1-c1ccc(F)c2c1CC[C@H]2Nc1ccc([C@H]2C[C@@H]2C(=O)O)cn1 [Example 23] | 11 | 75 (≈ 169 µM) | 15 | <0.5 | 0.005 |
| CC(C)c1ccccc1-c1ccc(F)c2c1CC[C@H]2Nc1ccc([C@H]2C[C@@H]2C(=O)O)cn1 [Example 47] | 12 | 72 (≈ 167 µM) | 14 | <0.5 | 0.026 |
| Cc1cc(C(=O)N(C)C)cc(C)c1-c1ccc(F)c2c1CC[C@H]2Nc1ccc([C@H]2C[C@@H]2C(=O)O)cn1 [Example 75] | > 50 | 117 (≈ 240 µM) | > 50 | <0.5 | 0.186 |
| Cc1cc(OCCC(C)(C)O)cc(C)c1-c1ccc(F)c2c1CC[C@H]2Nc1ccc([C@H]2C[C@@H]2C(=O)O)cn1 [Example 4, (1S,2S)-2-(6-{(R)-7-Fluoro-4-[4-(3-hydroxy-3-methyl-butoxy)-2,6-dimethyl-phenyl]-indan-1-ylamino}-pyridin-3-yl)-cyclopropanecarboxylic acid] | 46 | 89 (≈ 172 µM) | > 50 | <0.5 | 0.008 |
| Nc1cc(F)c(-c2ccc(F)c3c2CC[C@H]3Nc2ccc([C@H]3C[C@@H]3C(=O)O)cn2)c(F)c1 [Example 58] | > 50 | 107 (≈ 243 µM) | > 50 | <0.5 | 0.462 |
| CNC(=O)c1cc(C)c(-c2ccc(F)c3c2CC[C@H]3Nc2ccc([C@H]3C[C@@H]3C(=O)O)cn2)c(C)c1 [Example 66] | > 50 | 115 (≈ 243 µM) | > 50 | <1.0 | 0.039 |
| O=C(O)[C@H]1C[C@@H]1c1ccc(N[C@@H]2CCc3c(-c4c(Cl)cccc4Cl)ccc(F)c32)nc1 [Example 50] | 21 | 69 (≈ 151 µM) | 22 | <1.0 | 0.013 |
| Cc1cc(C(N)=O)cc(C)c1-c1ccc(F)c2c1CC[C@H]2Nc1ccc([C@H]2C[C@@H]2C(=O)O)cn1 [Example 21] | > 50 | 83 (≈ 181 µM) | > 50 | <0.5 | 0.06 |
